These results are taken from BindingDB's records for doi:10.1039/c4ob00214h (Lanzhou University, 2014).

The term IC50 denotes the concentration at which inhibition is half-maximal. Low values mean higher potency, high ones lower potency.

Each structure is given as a SMILES string.

Assay [1] concerns the target T1, Tyrosine-protein phosphatase non-receptor type 1 (Homo sapiens, UniProt P18031).
T1 sequence (P18031 whole entry): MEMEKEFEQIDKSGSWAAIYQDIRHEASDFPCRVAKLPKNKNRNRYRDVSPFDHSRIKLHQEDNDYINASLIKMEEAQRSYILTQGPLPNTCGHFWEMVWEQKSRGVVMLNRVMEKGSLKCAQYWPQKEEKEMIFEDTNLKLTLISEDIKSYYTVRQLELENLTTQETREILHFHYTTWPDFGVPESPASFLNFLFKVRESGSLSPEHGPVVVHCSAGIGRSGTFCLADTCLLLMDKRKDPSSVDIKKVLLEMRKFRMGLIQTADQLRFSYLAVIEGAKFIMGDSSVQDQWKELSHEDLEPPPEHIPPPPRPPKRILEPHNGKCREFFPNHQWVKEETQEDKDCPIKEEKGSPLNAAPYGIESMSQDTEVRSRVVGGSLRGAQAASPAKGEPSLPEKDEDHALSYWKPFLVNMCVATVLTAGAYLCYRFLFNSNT

Assay [2] concerns the target T2, M-phase inducer phosphatase 2 (Homo sapiens, UniProt P30305).
T2 sequence (P30305 whole entry): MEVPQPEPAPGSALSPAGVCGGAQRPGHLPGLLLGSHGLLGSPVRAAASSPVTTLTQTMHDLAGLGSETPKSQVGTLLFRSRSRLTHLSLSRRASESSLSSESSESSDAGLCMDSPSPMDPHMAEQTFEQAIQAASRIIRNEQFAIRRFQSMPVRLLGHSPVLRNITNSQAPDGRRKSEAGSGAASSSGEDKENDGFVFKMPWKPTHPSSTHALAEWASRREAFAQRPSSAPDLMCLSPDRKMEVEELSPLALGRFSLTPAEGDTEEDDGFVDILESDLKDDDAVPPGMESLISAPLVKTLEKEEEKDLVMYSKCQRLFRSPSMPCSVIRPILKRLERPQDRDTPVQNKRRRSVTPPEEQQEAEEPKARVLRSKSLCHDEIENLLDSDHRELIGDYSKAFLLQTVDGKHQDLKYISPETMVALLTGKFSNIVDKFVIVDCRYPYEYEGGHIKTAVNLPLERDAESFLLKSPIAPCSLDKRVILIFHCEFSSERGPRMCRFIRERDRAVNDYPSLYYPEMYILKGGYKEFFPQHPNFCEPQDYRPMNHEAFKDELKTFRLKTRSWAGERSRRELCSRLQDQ

The target in assay [3] is T3, Tyrosine-protein phosphatase non-receptor type 2 (Homo sapiens, UniProt P17706).
T3 sequence (P17706 whole entry): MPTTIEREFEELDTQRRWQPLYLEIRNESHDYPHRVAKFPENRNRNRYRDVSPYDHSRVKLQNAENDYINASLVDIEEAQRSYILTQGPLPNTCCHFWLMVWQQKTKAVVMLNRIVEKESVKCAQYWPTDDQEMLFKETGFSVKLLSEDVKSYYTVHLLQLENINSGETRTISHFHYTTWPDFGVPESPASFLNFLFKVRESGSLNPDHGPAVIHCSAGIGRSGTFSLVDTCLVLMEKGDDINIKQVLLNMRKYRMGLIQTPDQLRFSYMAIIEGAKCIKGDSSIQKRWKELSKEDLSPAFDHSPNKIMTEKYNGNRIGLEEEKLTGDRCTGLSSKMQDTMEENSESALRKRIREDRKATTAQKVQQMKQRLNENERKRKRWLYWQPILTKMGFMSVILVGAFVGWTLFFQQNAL

Assay [4] has as its target Tyrosine-protein phosphatase non-receptor type 6 (Homo sapiens, UniProt P29350).
Assay [5] has as its target T4, Tyrosine-protein phosphatase non-receptor type 11 (Homo sapiens, UniProt Q06124).
T4 sequence (Q06124 whole entry): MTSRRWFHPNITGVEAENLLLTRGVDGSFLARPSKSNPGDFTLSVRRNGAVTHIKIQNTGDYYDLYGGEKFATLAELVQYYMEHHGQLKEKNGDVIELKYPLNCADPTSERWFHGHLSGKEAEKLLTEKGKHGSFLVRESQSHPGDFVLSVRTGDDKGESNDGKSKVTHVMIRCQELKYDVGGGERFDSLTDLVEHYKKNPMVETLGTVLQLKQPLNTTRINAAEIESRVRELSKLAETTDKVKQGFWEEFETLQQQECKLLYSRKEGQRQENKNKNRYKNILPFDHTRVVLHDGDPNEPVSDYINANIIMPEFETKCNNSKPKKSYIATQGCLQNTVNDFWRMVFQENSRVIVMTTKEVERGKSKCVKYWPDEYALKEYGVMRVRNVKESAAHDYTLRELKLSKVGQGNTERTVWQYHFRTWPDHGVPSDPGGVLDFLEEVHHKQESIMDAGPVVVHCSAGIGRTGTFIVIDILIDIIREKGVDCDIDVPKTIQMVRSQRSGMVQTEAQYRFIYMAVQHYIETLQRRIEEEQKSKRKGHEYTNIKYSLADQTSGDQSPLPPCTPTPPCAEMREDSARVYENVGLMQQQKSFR

Sequence of Tyrosine-protein phosphatase non-receptor type 6 (P29350 whole entry): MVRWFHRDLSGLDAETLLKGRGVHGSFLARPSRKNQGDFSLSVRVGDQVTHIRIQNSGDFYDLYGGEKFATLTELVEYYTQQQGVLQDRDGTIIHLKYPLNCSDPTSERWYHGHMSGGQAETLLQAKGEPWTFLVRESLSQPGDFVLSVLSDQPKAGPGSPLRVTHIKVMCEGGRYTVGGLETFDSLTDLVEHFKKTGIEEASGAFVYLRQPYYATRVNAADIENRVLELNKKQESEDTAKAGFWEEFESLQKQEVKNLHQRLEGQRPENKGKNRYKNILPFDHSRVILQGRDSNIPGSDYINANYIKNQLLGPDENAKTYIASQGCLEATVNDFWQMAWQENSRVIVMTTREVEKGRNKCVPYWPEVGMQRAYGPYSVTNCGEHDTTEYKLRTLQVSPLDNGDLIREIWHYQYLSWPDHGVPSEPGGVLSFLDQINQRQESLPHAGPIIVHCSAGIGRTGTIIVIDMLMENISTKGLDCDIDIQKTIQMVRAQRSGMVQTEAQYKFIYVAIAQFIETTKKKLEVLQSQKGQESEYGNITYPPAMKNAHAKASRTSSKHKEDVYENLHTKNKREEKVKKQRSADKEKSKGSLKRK

As for `CCCCCCCCCCCC/C=C/[C@@]12C(=O)O[C@@H](C)[C@@H]1[C@H]1C(=C[C@H]2CCCCCCCCCCCC)C(=O)O[C@H]1C` [(1R,2S,3S,8R,9S,12S)-8-dodecyl-3,12-dimethyl-9-[(1E)-tetradec-1-en-1-yl]-4,11-dioxatricyclo[7.3.0.0,⁶]dodec-6-ene-5,10-dione (6)], the concentration for half-maximal inhibition (IC50) in assay [1] was 3.25 µM; in assay [2] it was 2.34 µM; in assay [3] it was 13.2 µM.

Regarding `CCCCCCCCCCCCC/C=C/[C@@]12C(=O)O[C@@H](C)[C@@H]1[C@H]1C(=CC2CCCCCCCCCCCC)C(=O)O[C@H]1C` (stereo partly drawn) [(1R,2S,3S,8R,9S,12S)-8-dodecyl-3,12-dimethyl-9-[(1E)-pentadec-1-en-1-yl]-4,11-dioxatricyclo[7.3.0.0,⁶]dodec-6-ene-5,10-dione (7)], the IC50 in assay [1] stood at 4.27 µM; in assay [2], 3.93 µM; in assay [3], 31.8 µM.

For the molecule `CCCCCCCCCCCC[C@@H]1C=C2C(=O)O[C@@]3(C)O[C@@]4(C)OC(=O)[C@]1(C=O)[C@H]4[C@@H]23` [(1S,4S,5R,10R,11S,12R)-5-dodecyl-1,10-dimethyl-3,8-dioxo-2,9,13-trioxatetracyclo[8.2.1.0⁴,.0⁷,]tridec-6-ene-4-carbaldehyde (14)], the concentration for half-maximal inhibition (IC50) in assay [1] came to 6 µM; in assay [2], 8.33 µM; in assay [3] it was 9.38 µM.

For the molecule `CCCCCCCCCCCCC/C=C/[C@@]12C(=O)O[C@@H](C)[C@@H]1[C@H](C(C)=O)C(C(=O)O)=C[C@H]2CCCCCCCCCCCC` [(3S,3aR,4S,7R,7aS)-4-acetyl-7-dodecyl-3-methyl-1-oxo-7a-[(1E)-pentadec-1-en-1-yl]-1,3,3a,4,7,7a-hexahydro-2-benzofuran-5-carboxylic acid (9)], the IC50 in assay [1] was determined as 0.27 µM; in assay [4], 3.86 µM; in assay [2], 0.22 µM; in assay [3], 2.55 µM; in assay [5] it was 3.13 µM.

As for `CCCCCCCCCCCC[C@@H]1C=C2C(=O)O[C@@]3(C)O[C@@]4(C)OC(=O)[C@]1(CO)[C@H]4[C@@H]23` [(1R,6R,7S,10S,11R,12S)-6-dodecyl-7-(hydroxymethyl)-1,10-dimethyl-2,9,13-trioxatetracyclo[8.2.1.0⁴,.0⁷,]tridec-4-ene-3,8-dione (15)], the results for the IC50 in assay [1], in assay [2] and in assay [3] were 20.4 µM, 17 µM and 19.8 µM, respectively.

Consider `CCCCCCCCCCCCC/C=C/[C@@]12C(=O)O[C@@H](C)[C@@H]1[C@H](C(C)=O)C(C(=O)O)=CC2CCCCCCCCCCCC` (stereo partly drawn) [(3S,3aR,4S,7aS)-4-acetyl-7-dodecyl-3-methyl-1-oxo-7a-[(1E)-pentadec-1-en-1-yl]-1,3,3a,4,7,7a-hexahydro-2-benzofuran-5-carboxylic acid (10)], for which the IC50 came to 0.27 µM in assay [1]; 4.41 µM in assay [4]; 0.2 µM in assay [2]; 4.73 µM in assay [3]; 1.71 µM in assay [5].

Turning to `CCCCCCCCCCCC/C=C/[C@]12C(=O)O[C@]3(C)O[C@]4(C)OC(=O)C(=C[C@H]1CCCCCCCCCCCC)[C@@H]4[C@@H]32` [Paracaseolide A (13)], the IC50 in assay [1] stood at 1.5 µM; in assay [2] it was 2.34 µM; in assay [3], 6.01 µM.
